Test results: paper PMC5508519 (Bioorganic & medicinal chemistry letters, 2017)

Key:
hM4 = target: T1, hM4 (Homo sapiens, UniProt P08173); assay: calcium mobilization assay, hM4 CHO cells co-transfected with Gqi5, ACh EC80; format: cell-based; settings: SAR text on Table 2
T1 sequence (P08173 1-479): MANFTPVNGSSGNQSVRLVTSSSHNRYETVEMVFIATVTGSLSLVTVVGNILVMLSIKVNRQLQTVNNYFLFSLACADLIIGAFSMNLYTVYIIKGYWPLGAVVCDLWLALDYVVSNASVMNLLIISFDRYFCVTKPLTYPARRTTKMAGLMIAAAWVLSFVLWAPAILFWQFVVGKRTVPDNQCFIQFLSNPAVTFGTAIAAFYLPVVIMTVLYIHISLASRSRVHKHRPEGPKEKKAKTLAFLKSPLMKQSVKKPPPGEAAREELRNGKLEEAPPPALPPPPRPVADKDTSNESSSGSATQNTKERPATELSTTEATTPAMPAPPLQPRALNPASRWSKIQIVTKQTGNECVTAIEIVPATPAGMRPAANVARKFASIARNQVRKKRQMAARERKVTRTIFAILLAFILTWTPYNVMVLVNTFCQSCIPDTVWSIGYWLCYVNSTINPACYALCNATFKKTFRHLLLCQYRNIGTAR

[1] = predicted hepatic clearance from human microsomal CLint; format: in vitro ADME; settings: based on CLint data from microsomes
M1 = target: T2, M1 (Homo sapiens, UniProt P11229); assay: calcium mobilization assay, hM1 CHO cells, approximate EC80 of ACh; format: cell-based; settings: n = 1
T2 sequence (P11229 1-460): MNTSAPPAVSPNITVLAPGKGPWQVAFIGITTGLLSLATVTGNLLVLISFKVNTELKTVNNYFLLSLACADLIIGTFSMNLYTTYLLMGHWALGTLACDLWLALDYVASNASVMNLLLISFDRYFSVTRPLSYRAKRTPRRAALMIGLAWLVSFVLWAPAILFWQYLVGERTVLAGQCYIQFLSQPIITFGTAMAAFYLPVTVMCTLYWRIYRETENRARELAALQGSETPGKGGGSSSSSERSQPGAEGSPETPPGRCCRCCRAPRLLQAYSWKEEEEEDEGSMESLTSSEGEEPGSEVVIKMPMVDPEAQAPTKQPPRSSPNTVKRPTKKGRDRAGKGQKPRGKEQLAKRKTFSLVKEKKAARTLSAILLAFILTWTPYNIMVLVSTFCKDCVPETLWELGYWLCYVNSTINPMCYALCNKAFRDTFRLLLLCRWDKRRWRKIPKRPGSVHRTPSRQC

M5 = target: T3, M5 (Homo sapiens, UniProt P08912); assay: calcium mobilization assay, hM5 CHO cells, approximate EC80 of ACh; format: cell-based; settings: n = 1
T3 sequence (P08912 1-532): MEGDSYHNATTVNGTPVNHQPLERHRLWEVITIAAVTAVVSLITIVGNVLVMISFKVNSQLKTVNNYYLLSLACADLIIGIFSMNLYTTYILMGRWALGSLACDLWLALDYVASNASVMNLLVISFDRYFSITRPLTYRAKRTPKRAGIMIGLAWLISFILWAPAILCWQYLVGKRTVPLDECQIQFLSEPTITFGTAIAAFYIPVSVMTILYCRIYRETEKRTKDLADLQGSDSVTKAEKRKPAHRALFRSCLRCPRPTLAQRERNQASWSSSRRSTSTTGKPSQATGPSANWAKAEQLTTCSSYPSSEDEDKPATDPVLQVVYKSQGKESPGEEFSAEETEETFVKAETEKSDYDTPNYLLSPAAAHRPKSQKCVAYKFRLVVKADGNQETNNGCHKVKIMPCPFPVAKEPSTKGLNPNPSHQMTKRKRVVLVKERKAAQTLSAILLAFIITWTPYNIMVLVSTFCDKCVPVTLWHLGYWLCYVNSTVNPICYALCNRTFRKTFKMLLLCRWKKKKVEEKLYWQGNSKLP

| SMILES | M4 inhibitory activity (in words) (hM4) | predicted hepatic clearance CLhep (human) [1] [mL/min/kg] | predicted hepatic clearance CLhep (rat) [mL/min/kg] | further results |
| --- | --- | --- | --- | --- |
| O=C(C1CCN(c2cc(Oc3ccc(F)cc3F)ncn2)CC1)N1CCC2CCCCC2C1 (stereo not shown) [Compound 17d] | retained M4 inhibitory activity | – | – | – |
| CCc1ccc(Oc2cc(N3CCC(C(=O)N4CCc5ccccc5C4)CC3)ncn2)cc1 [Compound 5] | – | 20.3 | 68.6 | – |
| COc1ccc2c(c1)CN(C(=O)C1CCN(c3cc(Oc4ccc(F)cc4F)ncn3)CC1)CC2 [Compound 17c] | retained M4 inhibitory activity | – | – | – |

More lines, main results first:

| M4 inhibitory activity (in words) (hM4) | predicted hepatic clearance CLhep (human) [1] [mL/min/kg] | predicted hepatic clearance CLhep (rat) [mL/min/kg] | SMILES | further results |
| --- | --- | --- | --- | --- |
| retained M4 inhibitory activity | – | – | COc1ccc2c(c1)CCN(C(=O)C1CCN(c3cc(Oc4ccc(F)cc4F)ncn3)CC1)C2 [Compound 17b] | – |
| – | 5.56 | 36.5 | O=C(C1CCN(c2cc(Oc3ccc(F)cc3F)ncn2)CC1)N1Cc2ccccc2C1 [Compound 17e, (1-(6-(2,4-difluorophenoxy)pyrimidin-4-yl)piperidin-4-yl)(isoindolin-2-yl)methanone] | M1 % ACh Min (M1): 18.2 % ACh Min; M5 % ACh Min (M5): 42.6 % ACh Min; predicted CLhep with inclusion of binding terms in the well-stirred model (rat): 5.93 mL/min/kg |
